From US20200046802A1, “THERAPEUTIC METHOD USING TOLEROGENIC PEPTIDES” (APITOPE INTERNATIONAL NV, priority 2017, published 2020)
Ends that are not written are not given here.

Experiments:
[1] = tested on: subjects with Graves' disease; assay: Open label upward titration study of ATX-GD-59, safety; assay type: in vivo, human; conditions: first 5 patients
Description: (§1) Safety and proof of principle study of ATX-GD-59 in male and female subjects with Graves' disease not currently treated with anti-thyroid therapy: An Open label study, with an upward titration over five dose levels administered by Intradermal injection.
(§2) There was an upward titration over five dose levels (injection(s) of 25, 50, 100, 400 and 800 μg) of ATX-GD-59 followed by injection(s) of 800 μg injected on five further occasions. All doses were based on the total peptide.
(§3) All doses were administered by intradermal injection at intervals of 14+/−3 days.
Subjects will be observed in the clinic for at least two hours after administration of the study drug and vital signs will be recorded at 15 minute intervals for the first hour and 30 minute intervals for the second hour. […]
Safety endpoints, which will be evaluated on an ongoing basis up to Week 22, are: • Injection site reactions as reported by the subjects in the diary card. • Occurrence of treatment related adverse events (Adverse Events), Serious Adverse Events, and laboratory abnormalities compared to baseline. • Results from the physical examination, and vital signs (reported on an ongoing basis and compared to baseline/screening). • Premature termination and reasons for premature termination from treatment and/or the study.

[2] = tested on: subjects with Graves' disease; assay: Open label upward titration study of ATX-GD-59, TSHR antibody and free T3 levels; assay type: in vivo, human
Description: as §1, §2, §3
Criteria for Evaluation of the Secondary Objectives: • TSHR antibody levels. • Ratio of stimulatory vs inhibitory TSHR antibodies. • Free T3, free T4 and TSH serum levels.

ATX-GD-59: comprises the RNB-5D-K1 and RNB-9B peptides of SEQ ID NOs: 5 and 6; lyophilised equimolar mixture of two peptides (chain 1 KKKKYVSIDVTLQQLESHKKK; chain 2 GLKMFPDLTKVYSTD; not fully specified)
safety data analysed by DMC [1]: No safety issues were identified
T3, % change from SD1 to W18 ([2]; Subject 3101): 13.60%
TRAb, % change from SD1 to W18 ([2]; Subject 3101): 3.58%
TSI, % change from SD1 to W18 ([2]; Subject 3101): −30.32%
T3, % change from SD1 to W18 ([2]; Subject 3301): 21.4%
TRAb, % change from SD1 to W18 ([2]; Subject 3301): 16.60%
TSI, % change from SD1 to W18 ([2]; Subject 3301): −4.48%
T3, % change from SD1 to W18 ([2]; Subject 3402): −17.72%
TRAb, % change from SD1 to W18 ([2]; Subject 3402): −61.13%
TSI, % change from SD1 to W18 ([2]; Subject 3402): −57.89%
T3, % change from SD1 to W18 ([2]; Subject 3501): −22.39%
TRAb, % change from SD1 to W18 ([2]; Subject 3501): −30.33%
TSI, % change from SD1 to W18 ([2]; Subject 3501): −32.45%
T3, % change from SD1 to W18 ([2]; Subject 3503): −45.33%
TRAb, % change from SD1 to W18 ([2]; Subject 3503): −64.51%
TSI, % change from SD1 to W18 ([2]; Subject 3503): −61.71%
stimulating TRAB levels (TSI) ([2]; first 5 subjects): All subjects had decrease
subjects with decreases in T3 and TRAB ([2]; first 5 subjects): Three of 5
